According to patent US20090220469A1, “PEPTIDES AGAINST AUTOANTIBODIES ASSOCIATED WITH GLAUCOMA AND USE OF THESE PEPTIDES” (MAX-DELBRUECK-CENTRUM FUER MOLEKULARE MEDIZIN, priority 2006, published 2009):

System: agonistic autoantibodies against the β2 adrenergic receptor (immunoglobulin fraction of POAG patients)
Test: Neutralization of agonistic autoantibodies by synthetic peptides, beating rate of spontaneously beating neonatal rat cardiomyocytes
Assay type: cell-based
Conditions: for recognition of epitopes by the antibodies: 5 overlapping peptides of loop II of the β2 adrenergic receptor, FIG. 6; for effect on the antibody-induced increase in the spontaneous beating rate: immunoglobulins of 5 patients with POAG preincubated with short, overlapping peptides of the second extracellular loop of the β2 receptor, neonatal rat cardiomyocytes; for blocking of the stimulating effect of the antibodies by extracellular loop peptides: immunoglobulins from 6 POAG patients preexposed to peptides of the first, second and third extracellular β2 receptor loops, 0.5 μg peptide in 50 μl
Method: Preparation of the immunoglobulin fraction. The immunoglobulin fraction was isolated from 1- to 2-ml serum samples by ammonium sulfate precipitation at a saturation of 40%. The precipitates were washed and dissolved in dialysis buffer (154 mmol/l NaCl, 10 mmol/l sodium phosphate; pH 7.2). The procedure of precipitating, washing, and dissolving was repeated twice.
Finally, the immunoglobulins were taken up in 1 ml PBS (pH 7.2) and dialyzed at 4° C. for 30 hours against 1 l of dialysis buffer. The buffer was changed five times during dialysis. For detection of autoantibodies, the immunoglobulin fractions were added at a dilution of 1:20 or 1:40 to the flasks.
After the dialysis, the IgG fractions feature a concentration of 10-15 mg/ml, a maximum of 10 μg/ml of which are specific receptor antibodies. 50 μl of this IgG solution are pre-incubated with the peptides with the following concentration of peptides: 5 μl of a buffered solution of 100 μg/ml per 50 μl IgG solution. This mixture is pre-incubated at room temperature for 30 minutes and subsequently filled into the cell culture vials, after the former nutrient solution has been removed by pipet. The amount of the medium is 2 ml. The final concentration therefore is of […] for the IgG and 0.5 μg for the peptides. If the molecular weight of the peptide (10 mer) is set with 1 KD and that of the IgG is set with 150 KD, there is an […].
For the neutralization experiments, synthetic peptides corresponding to the sequence of the three extracellular loops of the human β2 adrenegic receptor was added in excess (0.5 μg in 50 μl) to 50 μl of the immunoglobulin fraction. The mixtures were shaken and incubated at room temperature for 1 h. The 100-μl samples were then added to neonatal rat heart muscle cells cultured in 2 ml medium to a final dilution of 1:40. The beating rate was counted for 15 s, 60 min after the addition of the peptide/immunoglobulin mixture.
For identifying the autoantibody neutralizing epitopes synthetic overlapping peptides corresponding to the sequence of the second extracellular loop of the human β2 adrenoceptor was added to the immunoglobulins. After 1 h incubation at room temperature the samples were used as described above.

Substance	recognition of epitopes by the antibodies	effect on the antibody-induced increase in the spontaneous beating rate	blocking of the stimulating effect of the antibodies by extracellular loop peptides	blocking of the stimulating effect of the antibodies by extracellular loop peptides (listed as peptides from the second extracellular loop)
AINCYAN [Ala-Ile-Asn-Cys-Tyr-Ala-Asn]	Antibodies recognize the epitopes	abolished the increase in the spontaneous beating rate in all 5 patients tested		
ANETCCD [Ala-Asn-Glu-Thr-Cys-Cys-Asp]	Antibodies recognize the epitopes	abolished the increase in the spontaneous beating rate in all 5 patients tested		
loop II peptide: synthetic peptide corresponding to the sequence of the second extracellular loop of the human β2 adrenergic receptor (HWYRATHQEAINCYANETCCDFFTNQ)			blocks the antibody activity to stimulate the rat cardiomyocytes	blocked the effect
